Laboratory results from ChEMBL document CHEMBL1141905, “3,4-disubstituted azetidinones as selective inhibitors of the cysteine protease cathepsin K. Exploring P3 elements for potency and selectivity” (Bioorg Med Chem Lett, 2005).

Legend:
[1] = target: Procathepsin L (Homo sapiens) (UniProt P07711);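 further: apparent inhibition constant, determined on the human enzyme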
[2] = target: Cathepsin B (Homo sapiens) (UniProt P07858); experiment: Apparent inhibitory constant against human cathepsin B
[3] = target: Cathepsin S (Homo sapiens) (UniProt P25774); experiment: Apparent inhibitory constant against human cathepsin S
Cathepsin S (Homo sapiens), sequence (P25774 115-331 limits assumed): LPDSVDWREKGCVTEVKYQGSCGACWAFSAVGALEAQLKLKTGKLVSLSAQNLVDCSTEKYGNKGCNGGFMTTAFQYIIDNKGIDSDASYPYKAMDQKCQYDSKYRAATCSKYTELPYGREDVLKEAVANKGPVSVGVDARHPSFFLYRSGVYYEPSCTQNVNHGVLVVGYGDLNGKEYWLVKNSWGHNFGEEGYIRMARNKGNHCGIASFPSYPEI

[4] = target: T1, Cathepsin K (Oryctolagus cuniculus) (UniProt P43236); experiment: Apparent inhibitory constant against rabbit cathepsin K
T1 sequence (whole entry): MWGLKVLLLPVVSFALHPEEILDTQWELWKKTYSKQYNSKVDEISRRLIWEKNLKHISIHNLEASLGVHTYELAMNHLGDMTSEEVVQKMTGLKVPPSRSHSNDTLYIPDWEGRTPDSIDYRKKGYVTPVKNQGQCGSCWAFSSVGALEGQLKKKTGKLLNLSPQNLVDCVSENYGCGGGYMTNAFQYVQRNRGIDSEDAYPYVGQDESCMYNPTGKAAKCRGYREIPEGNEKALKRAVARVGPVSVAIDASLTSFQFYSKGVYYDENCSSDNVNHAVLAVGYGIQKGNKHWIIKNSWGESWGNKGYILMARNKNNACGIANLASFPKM

[5] = Clearance following intravenous administration evaluated as high; type: ADME, organism-based; conditions: in vivo
[6] = Volume of distribution following intravenous administration evaluated as moderate; type: ADME, organism-based; conditions: in vivo
[7] = Beta half life period; type: ADME
[8] = Alpha half life period; type: ADME
[9] = Mean residence time by intravenous administration; type: ADME, organism-based; conditions: in vivo

Procathepsin L (Homo sapiens), sequence (P07711 114-333 limits assumed): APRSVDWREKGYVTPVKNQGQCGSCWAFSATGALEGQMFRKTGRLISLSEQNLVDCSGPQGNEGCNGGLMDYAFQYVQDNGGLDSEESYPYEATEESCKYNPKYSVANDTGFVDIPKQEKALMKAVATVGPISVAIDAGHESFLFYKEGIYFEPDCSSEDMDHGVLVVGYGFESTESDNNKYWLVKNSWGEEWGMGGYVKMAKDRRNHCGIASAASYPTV

Row | Ki'' [1] [nM] | Ki'' [2] [nM] | Ki'' [3] [nM] | Ki'' [4] [nM] | clearance [5] [mL/min/kg] | Vd [6] [L/kg] | half-life [7] [min] | half-life [8] [min] | MRT [9] [min] | SMILES
1 | 2100 | 530 | 2800 | 3.1 |  |  |  |  |  | CC(=O)O[C@@H]1NC(=O)[C@H]1NC(=O)C1(NC(=O)c2ccc(N(C)C)cc2)CCCCC1
2 | 6400 | 1200 | 3500 | 12 |  |  |  |  |  | CSc1ccc(C(=O)NC2(C(=O)N[C@@H]3C(=O)N[C@H]3OC(C)=O)CCCCC2)cc1
3 |  |  |  |  | 92 | 1.6 | 21 | 2 | 17 | CN1CCN(c2nc(-c3ccc(C(=O)NC4(C(=O)N[C@@H]5C(=O)N[C@@H]5Oc5ccccc5)CCCCC4)cc3)cs2)CC1
4 | 19000 | 980 | 14000 | 5 |  |  |  |  |  | CC(=O)O[C@@H]1NC(=O)[C@H]1NC(=O)C1(NC(=O)c2ccc(N3CCOCC3)cc2)CCCCC1
5 | 6800 | 4300 | 950 | 57 |  |  |  |  |  | CC(=O)O[C@@H]1NC(=O)[C@H]1NC(=O)C1(NC(=O)OCc2ccccc2)CCCCC1
6 | 2100 | 91 | 8800 | 0.25 |  |  |  |  |  | CC(=O)O[C@@H]1NC(=O)[C@H]1NC(=O)C1(NC(=O)c2ccc(-c3csc(NN4CCN(C)CC4)n3)cc2)CCCCC1
7 | 8200 | 2100 | 3400 | 92 |  |  |  |  |  | CC(=O)O[C@@H]1NC(=O)[C@H]1NC(=O)C1(NC(=O)c2ccc(Cl)cc2)CCCCC1
8 | 3300 | 940 | 8500 | 1.1 |  |  |  |  |  | CC(=O)O[C@@H]1NC(=O)[C@H]1NC(=O)C1(NC(=O)c2ccc(-c3csc(N4CCN(C)CC4)n3)cc2)CCCCC1
9 | 310 | 6000 | 140000 | 0.26 |  |  |  |  |  | CN1CCN(Nc2nc(-c3ccc(C(=O)NC4(C(=O)N[C@@H]5C(=O)N[C@H]5Oc5ccccc5)CCCCC4)cc3)cs2)CC1
10 | 390 | 1400 | 7700 | 2.6 |  |  |  |  |  | CC(=O)O[C@@H]1NC(=O)[C@H]1NC(=O)C1(NC(=O)c2ccc(-c3csc(N(C)C)n3)cc2)CCCCC1
11 | 1400 | 490 | 8800 | 1.1 |  |  |  |  |  | CC(=O)O[C@@H]1NC(=O)[C@H]1NC(=O)C1(NC(=O)c2ccc(N3CCN(C)CC3)cc2)CCCCC1
12 | 11000 | 1700 | 12000 | 7.5 |  |  |  |  |  | CC(=O)O[C@@H]1NC(=O)[C@H]1NC(=O)C1(NC(=O)c2ccc(-c3csc(CN4CCOCC4)n3)cc2)CCCCC1
13 | 89 | 25000 | 10000 | 18 |  |  |  |  |  | CN(C)c1nc(-c2ccc(C(=O)NC3(C(=O)N[C@@H]4C(=O)N[C@H]4Oc4ccccc4)CCCCC3)cc2)cs1
14 | 8.2 | 5200 | 150000 | 8.2 |  |  |  |  |  | CN1CCN(Nc2nc(-c3ccc(C(=O)NC4(C(=O)N[C@@H]5C(=O)N[C@@H]5Oc5ccccc5)CCCCC4)cc3)cs2)CC1
